Reference: patent US9144239B2, “Macrocyclic picolinamides as fungicides” (DOW AGROSCIENCES LLC, priority 2012, dated 2015)

system: Rhyncosporium secalis; experiment: Fungicidal activity: barley scald (RHYNSE); assay type: in vivo; settings: 100 ppm, 1 Day Protectant
Protocol: Technical grades of materials were dissolved in acetone, which were then mixed with nine volumes of water containing 110 ppm Triton X-100. The fungicide solutions were applied onto wheat seedlings using an automated booth sprayer to run-off. All sprayed plants were allowed to air dry prior to further handling. Wheat plants (variety Yuma) were grown from seed in a greenhouse in 50% mineral soil/50% soil-less Metro mix until the first leaf was fully emerged, with 7-10 seedlings per pot. These plants were inoculated with an aqueous spore suspension of Septoria tritici either prior to or after fungicide treatments. After inoculation the plants were kept in 100% relative humidity (one day in a dark dew chamber followed by two to three days in a lighted dew chamber at 20° C.) to permit spores to germinate and infect the leaf. The plants were then transferred to a greenhouse set at 20° C. for disease to develop. When disease symptoms were fully expressed on the 1st leaves of untreated plants, infection levels were assessed on a scale of 0 to 100 percent disease severity. Percent disease control was calculated using the ratio of disease severity on treated plants relative to untreated plants. Evaluation of Fungicidal Activity: Barley Scald (Rhyncosporium secalis; Bayer Code […]) Barley seedlings (variety Harrington) were propagated in soil-less Metro mix, with each pot having 8 to 12 plants, and used in the test when first leaf was fully emerged. Test plants were inoculated by an aqueous spore suspension of Rhyncosporium secalis 24 hr after fungicide treatments. After inoculation the plants were kept in a dew room at 20° C. with 100% relative humidity for 48 hr. The plants were then transferred to a greenhouse set at 20° C. for disease to develop. Fungicide formulation, application and disease assessment on the sprayed leaves followed the procedures as described in the Example A.

| SMILES | Disease Control RHYNSE 1 DP |
| --- | --- |
| CCCO[C@H]1[C@H](C)OC(=O)[C@@H](NC(=O)c2nccc(OC)c2OCOC(C)=O)COC[C@@H]1Oc1ccccc1 [Compound 222] | A (80-100) |
| COc1ccnc(C(=O)N[C@H]2COC[C@H](Oc3ccc(F)cc3)[C@@H](Oc3ccc(F)cc3)[C@H](C)OC2=O)c1OCOC(C)=O [Compound 231] | A (80-100) |
| COc1ccnc(C(=O)N[C@H]2COC[C@H](Oc3ccc(F)cc3)[C@@H](Oc3ccc(F)cc3)[C@H](C)OC2=O)c1OC(C)=O [Compound 229, 2-(((3S,7S,8S,9S)-7,8-bis(4-fluorophenoxy)-9-methyl-2-oxo-1,5-dioxonan-3-yl)carbamoyl)-4-methoxypyridin-3-yl acetate] | A (80-100) |
| CCCO[C@H]1COC[C@H](NC(=O)c2nccc(OC)c2OCOC(C)=O)C(=O)O[C@@H](C)[C@@H]1Oc1ccccc1 [Compound 221] | A (80-100) |
| COc1ccnc(C(=O)N[C@H]2COC[C@H](Oc3ccccc3)[C@@H](Oc3ccccc3)[C@H](C)OC2=O)c1OCOC(C)=O [Compound 84] | A (80-100) |
